Experimental data published in patent US20140377259A1, “METHODS FOR INHIBITING HIV-1 REPLICATION INVOLVING THE ADMINISTRATION OF AN ANTI-CCR5 RECEPTOR MONOCLONAL ANTIBODY AND SMALL MOLECULE CCR5 RECEPTOR ANTAGONIST” (CytoDyn Inc., priority 2005, published 2014).
Like-named read-outs stand apart in the source and are kept apart here.

Key:
[1] = system: HIV-1JR-FL envelope-mediated membrane fusion; assay type: cell-based
Source text: HIV-1 envelope-mediated membrane fusion was examined using a fluorescence resonance energy transfer (RET) assay (Litwin et al. 1996) with modifications. Briefly, HeLa cells that stably express HIV-1JR-FL gp120/gp41 (Litwin et al. 1996) and CEM.NKR-CCR5 cells (NIH AIDS Research and Reference Reagent Program, (Spenlehauer et al. 2001; Trkola et al. 1999)) were labeled separately overnight with fluorescein octadecyl ester (F18; Molecular Probes, Eugene, Oreg.) and rhodamine octadecyl ester (R18; Molecular Probes), respectively. […] The CD4 mAb Leu3a was used as a control inhibitor, and percent inhibition was calculated as: (RET in the absence of inhibitor−RET in the presence of inhibitor)/(RET in the absence of inhibitor−RET in the presence of Leu3a)×100.
(§1) Experimental design and data analysis were based on the combination index (CI) method (Chou et al. 1991; Chou et al. 1984). Compounds were tested individually and in combination at a fixed molar ratio over a range of serial dilutions. […] The mutually exclusive CI formula was used for combinations of CCR5 inhibitors, while the mutually non-exclusive formula was utilized for combinations of inhibitors to distinct targets (Chou et al. 1991). Each test was conducted 4-12 times. Synergy, additivity and antagonism are indicated by CI<1, CI=1 and CI>1, respectively.
Twenty-two synergy comparisons (11 compounds×2 CI values) were made based on data generated in the membrane fusion assay, resulting in a corrected P value of 0.0023.

[2] = system: reporter virus pseudotyped with HIV-1JR-FL envelope; assay type: cell-based
Procedure: (§2) Cultures were incubated for 72 h at 37° C. in DMEM containing 10% fetal bovine serum, 1 mg/mL puromycin, 0.3 mg/mL geneticin, antibiotics, and 0.5% DMSO. Luciferase activity (relative light units or RLU) was measured using BrightGlo reagent (Promega, Madison, Wis.) according to the manufacturer's instructions. Percent inhibition was calculated as: (1−RLU in the presence of inhibitor/RLU in the absence of inhibitor)×100.
as §1

CCR5 [3] = biological target: T1, CCR5 (Homo sapiens, UniProt P51681); test: Competition binding: inhibition of 3H-UK-427,857 binding to CEM.NKR-CCR5 cells
T1 construct: host or cells: CEM.NKR (human T cell leukemia line), transduced with CCR5
T1 sequence (P51681 whole entry): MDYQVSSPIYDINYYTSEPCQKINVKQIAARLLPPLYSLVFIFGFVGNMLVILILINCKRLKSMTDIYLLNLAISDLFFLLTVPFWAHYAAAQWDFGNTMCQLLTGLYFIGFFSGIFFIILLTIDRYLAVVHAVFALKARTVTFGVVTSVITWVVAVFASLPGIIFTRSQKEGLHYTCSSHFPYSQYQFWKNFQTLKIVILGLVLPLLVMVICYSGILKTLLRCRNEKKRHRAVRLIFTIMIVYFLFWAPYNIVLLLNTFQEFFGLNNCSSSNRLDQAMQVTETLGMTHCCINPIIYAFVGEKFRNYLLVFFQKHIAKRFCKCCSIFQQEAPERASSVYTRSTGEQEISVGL
Source text: Cells were washed and then analyzed for radioactivity by scintillation counting.
The cells were washed in PBSA and lysed with 0.5N HCl prior to scintillation counting using a Wallac 1410 instrument.

[4] = system: AD101- and SCH-D-resistant HIV-1 variants; details: primary CD4+ T-cells; cited from earlier work
CCR5 [5] = biological target: T1, CCR5; test: Competition binding: inhibition of PRO 140-PE binding to CEM.NKR-CCR5 cells (flow cytometry); details: for Inhibition of PRO 140-PE binding: unlabeled inhibitor pre-incubated 30 min, 5 nM PRO 140-PE
Procedure: Inhibition was assessed on the basis of both MFI (A) and percent cells gated (B).
Azide was added to block CCR5 internalization during the assay.

[6] = system: reporter virus pseudotyped with HIV-1SF162 envelope; assay type: cell-based; details: 2nd inhibitor PRO 140, equimolar, 1:10 PRO 140 to zidovudine or nevirapine
Procedure: as §2, §1

[7] = system: HIV-1 Env-mediated fusion (HeLa-EnvJRFL with CEM NKR-CCR5 cells); test: HIV-1 RET cell-cell fusion assay (Part II, combination testing); assay type: cell-based; details: Drug 1 SCH-D with Drug 2 TAK-779, molar ratio 1:1
Procedure: Briefly, fluorescein octadecyl ester (F18; Molecular Probes, Eugene, Oreg.; 5 mg/ml in ethanol), was diluted 1:800 in DMEM labeling medium (DMEM; Invitrogen, Carlsbad, Calif.) with 10% fetal bovine serum (FBS; HyClone, Logan, Utah) and adjusted to an A506 of 0.34±10%. Octadecyl rhodamine B chloride (R18; Molecular Probes; 10 mg/ml in ethanol) was diluted 1:2050 in labeling medium and adjusted to an A565 of 0.52±10%. Both dyes were further diluted 2-fold by addition to cells in T75-cm^2 flasks. HeLa-EnvJRFL and CEM NKR-CCR5 cells were incubated overnight in F18- and R18-containing culture medium, respectively. […] The centrifugation/wash step was repeated twice, after which the cells were counted and concentrations adjusted to 1.5×10^6 cells/ml. […] The plates were then read on a fluorescence plate reader (Victor^2, Perkin Elmer, Boston, Mass.) using the excitation/emission filter combinations shown in Table 6.
The “% RET” was calculated according to the following formula after subtraction of background (blank) readings: […]
The “% Inhibition” was calculated according to the following formula: […]
Fifty percent inhibition (IC50) values were determined by fitting the inhibition data with a non-linear, four-parameter, variable slope equation (GraphPad Prism, 4.02; GraphPad Software, San Diego, Calif.). […]

[8] = in vivo; cited from earlier work
[9] = single administration of solution; cited from earlier work
HIV-1 = details: cited from earlier work
CCR5 lymphocytes = assay type: in vivo, human
Procedure: At the indicated times post-treatment, blood was collected and analyzed for CCR5 lymphocyte levels. The group mean values and standard deviations are indicated.
Whole blood specimens were combined separately with the indicated phycoerythrin-labeled anti-CCR5 antibodies or with appropriate isotype-control antibodies. Erythocytes were lysed and leukocytes were stabilized using the ImmunoPrep Reagent System (Beckman Coulter), and the cells were analyzed on a TQ Prep™ flow cytometry workstation (Beckman Coulter). Data were expressed as the percent of CCR5 cells relative to all cells gated in the analysis.
For up to 60 days post-treatment, at the times indicated in FIG. 6, blood was collected and analyzed for CCR5 lymphocyte levels.

CCR5 [10] = biological target: T1, CCR5; test: RANTES-induced calcium mobilization in L1.2-CCR5 cells; assay type: cell-based; details: FIG. 4
Source text: Similar results were obtained for […] and MIP-1β.

HIV-1JR-CSF = test: hu-PBL-SCID mouse model of HIV-1 infection; assay type: in vivo, SCID mice; details: multiple doses after steady state viral levels
Procedure: SCID mice were reconstituted with normal human peripheral blood mononuclear cells and infected 2 weeks later with HIV-1JR-CSF. Multiple doses of PRO 140 were administered following attainment of steady state viral levels. Plasma viral loads pre- and post-injection are indicated.

[11] = design: species or system human; details: in vivo
Procedure: At the indicated times post-treatment, serum was collected, cryopreserved, and analyzed for PRO 140 levels. Data for individual patients are indicated.
Sera were diluted as appropriate and combined with L1.2-CCR5 cells, which are mouse pre-B lymphoma cells engineered to stably express human CCR5. […] Following incubation with test samples, cells were washed and combined with a FITC-labeled sheep antibody against human IgG4 (The Binding Site Limited, Cat. #AF009). Cells were washed again and analyzed by flow cytometry.
Serum was collected post-treatment, cryopreserved, and analyzed for PRO 140 levels. Peak serum concentrations ranged to […] at 0.1 mg/kg and […] at 0.5 mg/kg.

[12] = labelled 1st inhibitor with 2nd inhibitor PRO 140, equimolar
[13] = labelled 1st inhibitor with 2nd inhibitor UK-427,857, equimolar
[14] = envelope JRFL, 2nd inhibitor PRO 140, equimolar, 1:10 PRO 140 to zidovudine or nevirapine

## RANTES: CC-chemokine that serves as a natural ligand for CCR5
[1]; [12]
  CI50: 0.59 ± 0.08
  CI90: 0.43 ± 0.05
[1]; [13]
  CI50: 0.48 ± 0.03
  CI90: 0.18 ± 0.01

## COC[C@@H](c1ccc(C(F)(F)F)cc1)N1CCN(C2(C)CCN(C(=O)c3c(C)ncnc3C)CC2)C[C@@H]1C [SCH-D, 1-[(4,6-dimethyl-5pyrimidinyl)carbonyl]-4 [4-[2-methoxy-1(R)-4-(trifluoromethyl)phenyl]ethyl-3 (S)-methyl-1-piperazinyl]-4-methylpiperidine]
[2]; [14]
  CI50: 0.47 ± 0.15
  CI90: 0.18 ± 0.04
CCR5 [3]
  Displacement of pre-bound 3H-UK-427,857 by unlabeled compound: wasn't displaced
[4]
  Sensitivity of SCH-D-resistant HIV-1 variant: resistant
CCR5 [5]; FIG. 16B
  Effect on percent of cells gated for positive binding of PRO 140-PE: little impact
CCR5 [5]
  Inhibition of PRO 140-PE binding: modest levels of inhibition
[6]
  CI50: 0.60 ± 0.17
  CI90: 0.28 ± 0.11
[7]
  Mean DR (Drug 2): 4.31 ± 1.82

## CCCCOCCOc1ccc(-c2ccc3c(c2)/C=C(/C(=O)Nc2ccc(OCc4cncn4CCC)cc2)CCCN3CC(C)C)cc1 [TAK-652]
[8]
  Oral bioavailability: orally bioavailable
[9]
  Safety and tolerability: safe and well tolerated
HIV-1
  Anti-HIV-1 activity in vitro: nanomolar range

## Cc1ccc(-c2ccc3c(c2)C=C(C(=O)Nc2ccc(C[N+](C)(C)C4CCOCC4)cc2)CCC3)cc1.[Cl-] [TAK-779]
[2]; compound alone, data not shown
  Inhibition of HIV-1 pseudovirus entry: Neither TAK-779 nor RANTES mediated consistent, high-level inhibition
[8]
  Oral bioavailability: poor oral bioavailability

## CCO/N=C(\c1ccc(Br)cc1)C1CCN(C2(C)CCN(C(=O)c3c(C)cc[n+]([O-])c3C)CC2)CC1 [SCH-C]
[4]
  Sensitivity of AD101-resistant HIV-1 variant: resistant

B1: PRO 140: humanized IgG4,κ anti-CCR5 monoclonal antibody, humanized version of murine mAb PA14 (antibody, chains of the INN, looked up, V domains shown)
VH: EVQLVESGGGLVKPGGSLRLSCAASGYTFSNYWIGWVRQAPGKGLEWIGDIYPGGNYIRNNEKFKDKTTLSADTSKNTAYLQMNSLKTEDTAVYYCGSSFGSNYVFAWFTYWGQGTLVTVSS
VL: DIVMTQSPLSLPVTPGEPASISCRSSQRLLSSYGHTYLHWYLQKPGQSPQLLIYEVSNRFSGVPDRFSGSGSGTDFTLKISRVEAEDVGVYYCSQSTHVPLTFGQGTKVEIK
CCR5 [3]; cells pre-incubated with 2 nM 3H-UK-427,857, unlabeled compound 30 min
  Displacement of pre-bound 3H-UK-427,857 by unlabeled compound: wasn't displaced
CCR5 [5]
  Inhibition of PRO 140-PE binding: Complete inhibition
CCR5 lymphocytes; in vivo, iv, 2 mg/kg
  Overall number of CCR5 lymphocytes (CTC5 binding): no decrease
CCR5 lymphocytes; single 2 mg/kg intravenous infusion
  Binding of antibody 2D7 (CCR5 lymphocytes not coated with PRO 140): significantly decreased
CCR5 [10]
  Effect on RANTES-induced calcium mobilization versus HIV-1JR-FL replication in PBMC: blocks HIV-1 but not chemokine signaling
HIV-1JR-CSF
  Control of viral replication (plasma viral load): prolonged control of viral replication
[11]
  Dose dependence of serum concentrations: increased proportionally with dose level
